Where two headings read alike, the source gives them in different places.
Columns and labels:
Assay in all cases: microbe, parasite or virus in culture
Assay type in all cases: cell-based
C. freundii = settings: Citrobacter freundii
E. coli = settings: Escherichia coli, read-out: MIC
K. aerogenes = settings: Klebsiella aerogenes
K. oxytoca = settings: Klebsiella oxytoca, read-out: MIC
K. pneumoniae = settings: Klebsiella pneumoniae, read-out: MIC

Measured: MIC

CO/N=C(\C(=O)N[C@@H]1C(=O)N2C(C(=O)[O-])=C(C[N+]3(C)CCCC3)CS[C@H]12)c1csc(N)n1 [FEP]
128 µg/mL: E. coli; strain 664523, OXA-48 | E. coli; strain 873435, CTX-M-15 | E. coli; strain CDC-0001, KPC | K. pneumoniae; strain 752334, OXA-48 | K. pneumoniae; strain 874328, SHV-11/CTX-M-15/NDM-1 | K. pneumoniae; strain 882752, SHV-11/TEM-1/KPC-3 | K. pneumoniae; strain 919877, SHV-OSBL/VIM-1
0.5 µg/mL: C. freundii; strain 134390, AmpC/TEM-1 | E. coli; strain VER, OXA-48 | K. aerogenes; strain 73546, AmpC
2 µg/mL: K. pneumoniae; strain 212027, AmpC/FOX-5/TEM-1
1 µg/mL: E. coli; strain 469, AmpC/SHV-12/TEM-1
256 µg/mL: K. pneumoniae; K. pneumoniae CDC-0049 (NDM), BLI fixed at 4 μg/ml
32 µg/mL: E. coli; strain 664520, OXA-48 | E. coli; strain CDC-0069, NDM | K. oxytoca; strain 847537, KPC | K. pneumoniae; strain 515746, OXA-48 | K. pneumoniae; strain 664438, OXA-48 | K. pneumoniae; strain 664439, OXA-48 | K. pneumoniae; strain 847204, KPC | K. pneumoniae; strain 856819, SHV-11/VIM-1 | K. pneumoniae; strain 864085, KPC | K. pneumoniae; strain 873460, SHV-30/CTX-M-15 | K. pneumoniae; strain 884679, KPC | K. pneumoniae; strain 892694, SHV-12/TEM-1/CTX-M-15/OXA-48/ACT
16 µg/mL: E. coli; strain 1924, TEM-12 | E. coli; strain 664507, OXA-48 | E. coli; strain SI-M004, SHV-2/GES-12 | K. pneumoniae; BAA1705, K. pneumoniae BAA 1705, KPC-2 | K. pneumoniae; strain 137052, SHV-11/KPC-3/TEM-1 | K. pneumoniae; strain 196477, AmpC | K. pneumoniae; strain 769972, OXA-48 | K. pneumoniae; strain 882956, SHV-31/DHA-1/VIM-1
≥ 256 µg/mL: E. coli; strain 878358, TEM-1/CTX-M | E. coli; strain 1459453, NDM-7 | E. coli; strain CDC-0149, NDM | E. coli; strain ESBL 5, CTX-M-15/TEM-1 | K. pneumoniae; strain 845661, KPC | K. pneumoniae; strain 848562, KPC | K. pneumoniae; strain 848600, KPC | K. pneumoniae; strain 848828, KPC | K. pneumoniae; strain 849170, KPC | K. pneumoniae; strain 871489, KPC | K. pneumoniae; strain 1104864, SHV-OSBL(b)/VIM-1 | K. pneumoniae; strain 1104866, SHV-OSBL(b)/VIM-1
8 µg/mL: C. freundii; strain 241181, AmpC/TEM-163 | E. coli; strain 875627, CTX-M-27 | E. coli; strain SI-V502, TEM-29/CTX-M-15 | K. pneumoniae; strain 178279, SHV-12/TEM-1/AmpC | K. pneumoniae; strain 722870, OXA-48
0.25 µg/mL: E. coli; strain SI-PO26, AmpC/CMY-2/TEM-1
0.06 µg/mL: E. coli; ATCC25922, E. coli ATCC 25922, enzyme content None | K. pneumoniae; ATCC13883, K. pneumoniae ATCC 13883, enzyme content None
64 µg/mL: E. coli; E. coli CDC-0452, NDM | E. coli; NCTC13353, E. coli NCTC 13353, CTX-M-15 | E. coli; strain 664516, OXA-48 | E. coli; strain 664522, OXA-48 | E. coli; strain 849121, KPC | E. coli; strain 890500, TEM-1/CTX-M-14 | E. coli; strain 1275635, VIM-23 | E. coli; strain SI-LP377, CTX-M-2 | K. pneumoniae; strain 6299, OXA-163 | K. pneumoniae; strain 787422, OXA-48 | K. pneumoniae; strain 890066, SHV-33/TEM-33/CTX-M-15/IMP-1
4 µg/mL: E. coli; strain EC1552 2A, AmpC/CMY-2/TEM-1, CTX-M-15 | K. aerogenes; strain 110099, AmpC/SHV-12 | K. aerogenes; strain 111707, AmpC/TEM-1 | K. oxytoca; strain 134943, CMY-2/TEM-1
